From ChEMBL document CHEMBL1148058, “Antibacterial triterpenoid acids from Dillenia papuana” (1994) come the findings set out here.

Common to all, as to type: functional
One assay relates to Bacillus subtilis. The assay can be described thus: Antibacterial activity against Bacillus subtilis ATCC 6633.
A further assay concerns Escherichia coli. The assay can be described thus: Antibacterial activity against Escherichia coli ATCC 25922.
The test system of the next assay is Micrococcus luteus. Description: Antibacterial activity against Micrococcus luteus ATCC 9341.

Each structure is given as a SMILES string.

`CC1(C)C(=O)[C@H](O)C[C@]2(C)[C@H]3CC=C4[C@@H]5C[C@@](C)(C(=O)O)CC[C@]5(C)CC[C@@]4(C)[C@]3(C)CC[C@@H]12` [DILLENIC ACID A]: the MIC was 2.4 µg with Bacillus subtilis, 2.4 µg in the assay on Escherichia coli and 1.2 µg against Micrococcus luteus.
As to `CC1(C)C(=O)C=C[C@]2(C)[C@H]3CC=C4[C@@H]5C[C@@](C)(C(=O)O)CC[C@]5(C)CC[C@@]4(C)[C@]3(C)CC[C@@H]12`, the MIC in the assay with Bacillus subtilis, against Escherichia coli and against Micrococcus luteus was 1 µg throughout.
In the case of `CC1(C)C(=O)C[C@H](O)[C@]2(C)[C@H]3CC=C4[C@@H]5C[C@@](C)(C(=O)O)CC[C@]5(C)CC[C@@]4(C)[C@]3(C)CC[C@@H]12` [DILLENIC ACID C], the MIC in the assay with Bacillus subtilis is 2 µg; in the assay on Escherichia coli, 5 µg; against Micrococcus luteus, 2 µg.
Turning to `CC1(C)[C@@H](O)C(=O)C[C@]2(C)[C@H]3CC=C4[C@@H]5C[C@@](C)(C(=O)O)CC[C@]5(C)CC[C@@]4(C)[C@]3(C)CC[C@@H]12` [DILLENIC ACID B], the MIC came out at 2 µg in the assay with Bacillus subtilis, 1 µg against Escherichia coli and 1 µg against Micrococcus luteus.
Consider `O=C(N[C@H](CO)[C@H](O)c1ccc([N+](=O)[O-])cc1)C(Cl)Cl` [CHLORAMPHENICOL], for which the MIC was 0.1 µg in the assay on Bacillus subtilis, 0.04 µg in the assay with Escherichia coli and 0.04 µg against Micrococcus luteus.
